This assay deals with Human epidermal keratinocytes. Kind of assay: in vitro scratch-wound assay (keratinocyte migration). In kind it is cell-based. The note with it: primary human epidermal keratinocytes, 24 h pre-culture with active, 24 h further culture, wound area ratio divided by control (control = 1), active level wt % of medium. The procedure: The migration of epidermal keratinocytes is the basis for skin re-epithelialization during wound healing. The in vitro scratch-wound assay using monolayers of primary human epidermal keratinocytes is a straightforward and effective method to assess the migratory capacity. Human epidermal keratinocytes (lot.: Ep21012001, Biocell) were seeded into 6-well plates, at 4.5×10^5 cells per well and maintained in a 37° C. incubator in an atmosphere of 5% of carbon dioxide in EpiLife™ Keratinocyte Medium until the cells reaching 70 to 80% of confluence in the well. Then, the cells were cultured by fresh medium (as control) or fresh medium supplemented with different actives for 24 hours. The cells were scratched by a […] of pipette tip in an identical manner to simulate the formation of wound, and images for the cells were taken immediately to record the wound. The cells were cultured again by identical fresh medium or fresh medium supplemented with different actives at 37° C. for 24 hours and images for the cells were taken again. The ratio of area before and after the further culture were obtained by using the software Image-pro plus. The relative migration rates for difference actives were calculated by dividing the values of control and were summarized in Table 1.
Regarding `NC(=O)c1cccnc1` [A, Niacinamide], the Relative migration rate came to 0.94.

As to `NC(=O)c1cccnc1` [B, Niacinamide], the Relative migration rate is 1.19.

With `NC(=O)c1cccnc1` [C, Niacinamide], the Relative migration rate is listed as 1.08.

Lysine carboxymethyl cysteinate: the Relative migration rate came to 1.15.

As to Lysine carboxymethyl cysteinate [D], the Relative migration rate is recorded as 1.04.

These data come from US20250032387A1, “A PERSONAL CARE OR PHARMACEUTICAL COMPOSITION” (Conopco, Inc., d/b/a UNILEVER, priority 2021, published 2025).
